Measured values taken from patent US7491721B2, “Antimycobacterial pharmaceutical composition” (priority 2004, dated 2009).

Columns and labels:
[1] = Acute toxicity by oral route in rats; settings: rat, in vivo
Description: (§1) Acute toxicity of the compound of formula (I) was determined in rodents by oral route.

[2] = Pharmacokinetics of the combination with rifampicin and pyrazinamide in mice; settings: mouse, in vivo, po; for half-life: T½
[3] = Acute toxicity by oral route in mice; settings: mouse, in vivo
Description: as §1

[4] = in vivo; settings: mouse, po, 25 mg/kg
[5] = in vivo; settings: dog, po, 12.5 mg
Description: (§2) Preliminary Pharmacokinetics studies of the compound of formula (I) was performed in mice and dog to determine bioavailibility and serum levels achieved and maintained by the compounds.

[6] = tested on: bacterial strains used in the Ames Mutagenicity test; experiment: Ames Mutagenicity test; assay type: cell-based; settings: all the bacterial strains used
[7] = Preliminary pharmacokinetics of compound of formula (I) in mice; settings: mouse, in vivo
Description: as §2

[8] = tested on: sensitive strain of MTB; experiment: Murine model of pulmonary tuberculosis, mice infected with sensitive strain; assay type: in vivo, Mycobacterium tuberculosis; settings: for dose giving 2 log reduction in the organs: animals infected with sensitive strain
[9] = Preliminary pharmacokinetics of compound of formula (I) in dog; settings: serum, 12.5 mg
Description: as §2

[10] = 12.5 mg/kg, (I) alone 12.5 mg/kg
[11] = given together: (I) 12.5 + RIF 20.0 + PYR 150.0 mg/kg
[12] = combination study, one month, doses mg/kg: (I) 25.0 where present, INH 25.0, RIF 20.0, PYR 150.0, ETH 100.0
[13] = combination study, three months, doses mg/kg: (I) 25.0 where present, INH 25.0, RIF 20.0, PYR 150.0, ETH 100.0
[14] = combination study, two months, doses mg/kg: (I) 25.0 where present, INH 25.0, RIF 20.0, PYR 150.0, ETH 100.0
[15] = monotherapy 12.5 mg/kg, 8 Weeks Treatment (two months)
[16] = monotherapy 12.5 mg/kg, 12 Weeks Treatment (three months)
[17] = monotherapy 12.5 mg/kg, one month of treatment
[18] = monotherapy 25 mg/kg, 8 Weeks Treatment (two months)
[19] = monotherapy 25 mg/kg, 12 Weeks Treatment (three months)
[20] = monotherapy 25 mg/kg, one month of treatment
[21] = monotherapy 50 mg/kg, 8 Weeks Treatment (two months)
[22] = monotherapy 50 mg/kg, 12 Weeks Treatment (three months)
[23] = monotherapy 50 mg/kg, one month of treatment
[24] = given together without (I): RIF 20.0 + PYR 150.0 mg/kg

## Cc1c(CN2CCN(c3cccc(C(F)(F)F)c3)CC2)cc(-c2ccccc2)n1NC(=O)c1ccncc1 [Compound of formula (I)]
[1]
  LD50: 793 mg/kg
[2]; [10]
  AUC: 2210 ng·h/mL
  Cmax: 660 ng/mL
  Tmax: 1.5 h
  half-life: 5.34 h
[2]; [11]
  AUC: 36500 ng·h/mL
  Cmax: 7580 ng/mL
  Tmax: 2.12 h
  half-life: 6.73 h
[3]
  LD50: 700 mg/kg
[4]
  AUC: 6880 ng·h/mL
  Cmax: 2680 ng/mL
  Tmax: 2 h
  half-life: 3.41 h
[5]
  half-life: 5.07 h
[6]
  mutagenicity in the Ames Mutagenicity test: non mutagenic
[7]; po, 25 mg
  AUC(0-t): 6880 ng·h/mL
  Cmax: 2680 ng/mL
  Tmax: 2 h
  half-life: 3.41 h
[7]; Mice, 12.5 mg (Oral), read-out: AUClast
  AUC(0-t): 2210 ng·h/mL
[7]; Mice, 12.5 mg (Oral), read-out: Cmax
  Cmax: 660 ng/mL
[7]; Mice, 12.5 mg (Oral), read-out: T1/2 (converted)
  half-life: 5.34 h
[7]; Mice, 12.5 mg (Oral), read-out: Tmax
  Tmax: 1.5 h
[8]
  dose giving 2 log reduction in the organs: 12.5 mg/kg
[8]; [12]
  Mean Log10CFU in organs of mice infected with sensitive strain of MTB, Lung: 3.11 ± 0.38 Log10CFU
  Mean Log10CFU in organs of mice infected with sensitive strain of MTB, Spleen: 2.42 ± 0.4 Log10CFU
[8]; [13]
  Mean Log10CFU in organs of mice infected with sensitive strain of MTB, Lung: 0.82 ± 0.91 Log10CFU
  Mean Log10CFU in organs of mice infected with sensitive strain of MTB, Spleen: 1.09 ± 0.83 Log10CFU
[8]; [14]
  Mean Log10CFU in organs of mice infected with sensitive strain of MTB, Lung: 1.86 ± 0.94 Log10CFU
  Mean Log10CFU in organs of mice infected with sensitive strain of MTB, Spleen: 2.60 ± 0.45 Log10CFU
[8]; [15]
  Mean Log10CFU in organs of mice infected with sensitive strain of MTB, Lung: 3.44 ± 0.69 Log10CFU
  Mean Log10CFU in organs of mice infected with sensitive strain of MTB, Spleen: 2.75 ± 0.63 Log10CFU
[8]; [16]
  Mean Log10CFU in organs of mice infected with sensitive strain of MTB, Lung: 2.76 ± 0.53 Log10CFU
  Mean Log10CFU in organs of mice infected with sensitive strain of MTB, Spleen: 2.68 ± 0.27 Log10CFU
[8]; [17]
  Mean Log10CFU in organs of mice infected with sensitive strain of MTB, Lung: 2.5 ± 0.35 Log10CFU
  Mean Log10CFU in organs of mice infected with sensitive strain of MTB, Spleen: 2.89 ± 0.32 Log10CFU
[8]; [18]
  Mean Log10CFU in organs of mice infected with sensitive strain of MTB, Lung: 2.89 ± 0.73 Log10CFU
  Mean Log10CFU in organs of mice infected with sensitive strain of MTB, Spleen: 2.37 ± 0.68 Log10CFU
[8]; [19]
  Mean Log10CFU in organs of mice infected with sensitive strain of MTB, Lung: 1.71 ± 1.24 Log10CFU
  Mean Log10CFU in organs of mice infected with sensitive strain of MTB, Spleen: 1.63 ± 0.98 Log10CFU
[8]; [20]
  Mean Log10CFU in organs of mice infected with sensitive strain of MTB, Lung: 2.3 ± 0.63 Log10CFU
  Mean Log10CFU in organs of mice infected with sensitive strain of MTB, Spleen: 2.42 ± 0.15 Log10CFU
[8]; [21]
  Mean Log10CFU in organs of mice infected with sensitive strain of MTB, Lung: 2.20 ± 0.56 Log10CFU
  Mean Log10CFU in organs of mice infected with sensitive strain of MTB, Spleen: 2.17 ± 0.46 Log10CFU
[8]; [22]
  Mean Log10CFU in organs of mice infected with sensitive strain of MTB, Lung: 1.46 ± 1.06 Log10CFU
  Mean Log10CFU in organs of mice infected with sensitive strain of MTB, Spleen: 1.56 ± 1.12 Log10CFU
[8]; [23]
  Mean Log10CFU in organs of mice infected with sensitive strain of MTB, Lung: 2.1 ± 0.36 Log10CFU
  Mean Log10CFU in organs of mice infected with sensitive strain of MTB, Spleen: 2.28 ± 0.38 Log10CFU
[9]; iv
  AUC(0-t): 20000 ng·h/mL
  Cmax: 8650 ng/mL
  Tmax: 3.48 h
[9]; po
  AUC(0-t): 10600 ng·h/mL
  Cmax: 3380 ng/mL
  Tmax: 0.75 h
  bioavailability: 56.4%

## NNC(=O)c1ccncc1 [Isoniazid]
[8]
  dose giving 2 log reduction in the organs: ≥ 25 mg/kg
[8]; [12]
  Mean Log10CFU in organs of mice infected with sensitive strain of MTB, Lung: 3.20 ± 0.45 Log10CFU
  Mean Log10CFU in organs of mice infected with sensitive strain of MTB, Spleen: 2.78 ± 0.30 Log10CFU
[8]; [13]
  Mean Log10CFU in organs of mice infected with sensitive strain of MTB, Lung: 1.20 ± 0.98 Log10CFU
  Mean Log10CFU in organs of mice infected with sensitive strain of MTB, Spleen: 1.35 ± 1.09 Log10CFU
[8]; [14]
  Mean Log10CFU in organs of mice infected with sensitive strain of MTB, Lung: 1.91 ± 0.9 Log10CFU
  Mean Log10CFU in organs of mice infected with sensitive strain of MTB, Spleen: 2.43 ± 0.39 Log10CFU
[8]; [15]
  Mean Log10CFU in organs of mice infected with sensitive strain of MTB, Lung: 3.9 ± 0.45 Log10CFU
  Mean Log10CFU in organs of mice infected with sensitive strain of MTB, Spleen: 3.73 ± 0.52 Log10CFU
[8]; [16]
  Mean Log10CFU in organs of mice infected with sensitive strain of MTB, Lung: 3.94 ± 0.28 Log10CFU
  Mean Log10CFU in organs of mice infected with sensitive strain of MTB, Spleen: 3.9 ± 0.37 Log10CFU
[8]; [17]
  Mean Log10CFU in organs of mice infected with sensitive strain of MTB, Lung: 4.56 ± 0.24 Log10CFU
  Mean Log10CFU in organs of mice infected with sensitive strain of MTB, Spleen: 4.93 ± 0.42 Log10CFU
[8]; [18]
  Mean Log10CFU in organs of mice infected with sensitive strain of MTB, Lung: 3.01 ± 0.68 Log10CFU
  Mean Log10CFU in organs of mice infected with sensitive strain of MTB, Spleen: 2.68 ± 0.89 Log10CFU
[8]; [19]
  Mean Log10CFU in organs of mice infected with sensitive strain of MTB, Lung: 3.06 ± 0.83 Log10CFU
  Mean Log10CFU in organs of mice infected with sensitive strain of MTB, Spleen: 2.41 ± 0.69 Log10CFU
[8]; [20]
  Mean Log10CFU in organs of mice infected with sensitive strain of MTB, Lung: 3.19 ± 0.6 Log10CFU
  Mean Log10CFU in organs of mice infected with sensitive strain of MTB, Spleen: 3.08 ± 0.44 Log10CFU
[8]; [21]
  Mean Log10CFU in organs of mice infected with sensitive strain of MTB, Lung: 2.45 ± 0.60 Log10CFU
  Mean Log10CFU in organs of mice infected with sensitive strain of MTB, Spleen: 2.30 ± 0.38 Log10CFU
[8]; [22]
  Mean Log10CFU in organs of mice infected with sensitive strain of MTB, Lung: 2.07 ± 0.33 Log10CFU
  Mean Log10CFU in organs of mice infected with sensitive strain of MTB, Spleen: 2.68 ± 0.36 Log10CFU
[8]; [23]
  Mean Log10CFU in organs of mice infected with sensitive strain of MTB, Lung: 2.97 ± 0.46 Log10CFU
  Mean Log10CFU in organs of mice infected with sensitive strain of MTB, Spleen: 2.89 ± 0.27 Log10CFU

## NC(=O)c1cnccn1 [PYR, Pyrazinamide]
[2]; [24]
  AUC: 649000 ng·h/mL
  Cmax: 138000 ng/mL
  Tmax: 1.5 h
  half-life: 2.09 h
[2]; [11]
  AUC: 477000 ng·h/mL
  Cmax: 146000 ng/mL
  Tmax: 1 h
  half-life: 2.05 h

## CO[C@H]1/C=C/O[C@@]2(C)Oc3c(C)c(O)c4c(O)c(c(/C=N/N5CCN(C)CC5)c(O)c4c3C2=O)NC(=O)/C(C)=C\C=C\[C@H](C)[C@H](O)[C@@H](C)[C@@H](O)[C@@H](C)[C@H](OC(C)=O)[C@@H]1C [Rifampicin]
[2]; [24]
  AUC: 148000 ng·h/mL
  Cmax: 15200 ng/mL
  Tmax: 2.3 h
[2]; [11]
  AUC: 195000 ng·h/mL
  Cmax: 19300 ng/mL
  Tmax: 3.25 h
[8]; [12]
  Mean Log10CFU in organs of mice infected with sensitive strain of MTB, Lung: 2.75 ± 0.36 Log10CFU
  Mean Log10CFU in organs of mice infected with sensitive strain of MTB, Spleen: 2.78 ± 0.42 Log10CFU
[8]; [13]
  Mean Log10CFU in organs of mice infected with sensitive strain of MTB, Lung: 0.84 ± 1.10 Log10CFU
  Mean Log10CFU in organs of mice infected with sensitive strain of MTB, Spleen: 1.21 ± 0.83 Log10CFU
[8]; [14]
  Mean Log10CFU in organs of mice infected with sensitive strain of MTB, Lung: 1.84 ± 0.95 Log10CFU
  Mean Log10CFU in organs of mice infected with sensitive strain of MTB, Spleen: 2.40 ± 0.7 Log10CFU
